Assay results as given in ChEMBL document CHEMBL3272053, “(exo, exo)-2-Aryltropane-3-carboxylic esters, hypoglycemic agents with accompanying analgesic activity” (J Med Chem, 1978).
Calls of active or inactive are those of the source. No cut-off for these calls is given here.

Tests used:
Rattus norvegicus [1] = experiment: Hypoglycemic activity in glucose loaded Sprague-Dawley rat assessed as reduction of blood glucose level at 100 mg/kg, po after 30 mins relative to control; type: functional; set-up: scale not given: the % may be the effect or the level left
Rattus norvegicus [2] = experiment: Hypoglycemic activity in glucose loaded Sprague-Dawley rat assessed as reduction of blood glucose level at 100 mg/kg, po measured at 1.5 to 2 hrs; type: functional, organism-based; set-up: dose 100 mg/kg
Rattus norvegicus [3] = experiment: Hypoglycemic activity in glucose loaded Sprague-Dawley rat assessed as reduction of blood glucose level at 100 mg/kg, po measured at 1 hr; type: functional, organism-based; set-up: dose 100 mg/kg
Mus musculus [4] = experiment: Analgesic activity in Swiss-Webster mouse assessed as reduction of acetylcholine-induced writhing at 50 mg/kg, po relative to control; type: functional; set-up: scale not given: the % may be the effect or the level left
Rattus norvegicus [5] = experiment: Narcotic analgesic activity in fasted Sprague-Dawley rat at 240 mg/kg, po measured at 60 mins by D'Amour-Smith tail-flick test relative to control; type: functional
Rattus norvegicus [6] = experiment: Narcotic analgesic activity in fasted Sprague-Dawley rat at 240 mg/kg, po measured at 15 mins by D'Amour-Smith tail-flick test relative to control; type: functional
Rattus norvegicus [7] = experiment: Toxicity in Sprague-Dawley rat assessed as rigidity at 240 mg/kg, po; type: organism-based; set-up: dose 240 mg/kg, route oral; conditions: in vivo
Rattus norvegicus [8] = experiment: Hypoglycemic activity in glucose loaded Sprague-Dawley rat assessed as reduction of blood glucose level at 94 mg/kg, po relative to control; type: functional; set-up: scale not given: the % may be the effect or the level left
Rattus norvegicus [9] = experiment: Toxicity in Sprague-Dawley rat assessed as tremor at 240 mg/kg, po; type: organism-based; set-up: dose 240 mg/kg, route oral; conditions: in vivo
Mus musculus [10] = experiment: Analgesic activity in sc dosed Swiss-Webster mouse assessed as reduction of acetylcholine-induced writhing; type: functional; conditions: Mus musculus, Swiss-Webster, sc; read-out: ED50
Rattus norvegicus [11] = experiment: Toxicity in Sprague-Dawley rat assessed as convulsion at 60 mg/kg, sc; type: organism-based; set-up: dose 60 mg/kg, route subcutaneous; conditions: in vivo
Rattus norvegicus [12] = experiment: Hypoglycemic activity in Sprague-Dawley rat assessed as reduction of blood glucose level at 64 mg/kg, po by glucagon-impaired glucose disposal test relative to control; type: functional; set-up: scale not given: the % may be the effect or the level left
Rattus norvegicus [13] = experiment: Toxicity in Sprague-Dawley rat assessed as hyperactivity at 2.5 mg/kg, sc; type: organism-based; set-up: dose 2.5 mg/kg, route subcutaneous; conditions: in vivo
Rattus norvegicus [14] = experiment: Narcotic analgesic activity in fed Sprague-Dawley rat at 60 mg/kg, sc measured at 30 mins by D'Amour-Smith tail-flick test; type: functional; conditions: route subcutaneous
Rattus norvegicus [15] = experiment: Narcotic antagonist activity in sc dosed fed Sprague-Dawley rat assessed as concentration required to decrease phenazocine-induced analgesic activity by 50%; type: functional
Rattus norvegicus [16] = experiment: Toxicity in Sprague-Dawley rat assessed as tremor at 60 mg/kg, sc; type: organism-based; set-up: dose 60 mg/kg, route subcutaneous; conditions: in vivo
Rattus norvegicus [17] = experiment: Toxicity in Sprague-Dawley rat assessed as tremor at 120 mg/kg, sc; type: organism-based; set-up: dose 120 mg/kg, route subcutaneous; conditions: in vivo
Rattus norvegicus [18] = experiment: Narcotic analgesic activity in fed Sprague-Dawley rat at 120 mg/kg, sc measured at 30 mins by D'Amour-Smith tail-flick test; type: functional; conditions: route subcutaneous
Mus musculus [19] = experiment: Toxicity in Swiss-Webster mouse assessed as hyperactivity at 75 mg/kg, sc; type: organism-based; set-up: dose 75 mg/kg, route subcutaneous; conditions: in vivo
Rattus norvegicus [20] = experiment: Hypoglycemic activity in Sprague-Dawley rat assessed as reduction of blood glucose level at 88 mg/kg, po by glucagon-impaired glucose disposal test relative to control; type: functional; set-up: scale not given: the % may be the effect or the level left

With COC(=O)[C@H]1C[C@H]2CC[C@@H]3[C@H]1c1cc(O)ccc1CN23 the Activity (Rattus norvegicus [1]) was 33%, the Activity (Rattus norvegicus [2]) was “inactive” and the Activity (Rattus norvegicus [3]) was “inactive”.

COC(=O)[C@H]1C[C@H]2CC[C@@H]3[C@H]1c1sccc1C[N+]23[O-] was tested, and the Activity (Mus musculus [4]) was 67%, the Activity (Rattus norvegicus [5]) was 14% and the Activity (Rattus norvegicus [6]) was 41%. For the same compound, the Activity (Rattus norvegicus [7]) was “Toxic”, the Activity (Rattus norvegicus [8]) was under 20% and the Activity (Rattus norvegicus [9]) was “Toxic”.

With COC(=O)[C@H]1C[C@H]2CC[C@H]([C@H]1c1ccccc1)N2CC1CC1.Cc1ccc(S(=O)(=O)O)cc1 the ED50 (Mus musculus [10]) was 16 mg/kg, the Activity (Rattus norvegicus [11]) was “Toxic” and the Activity (Rattus norvegicus [12]) was 20%. The Activity (Rattus norvegicus [13]) was “Toxic”, the Activity (Rattus norvegicus [14]) was under 20% and the Activity (Rattus norvegicus [15]) was 4.7 mg/kg. For the same compound, the Activity (Rattus norvegicus [16]) was “Toxic”.

In the case of COC(=O)[C@H]1C[C@H]2CC[C@H]([C@H]1Cc1ccccc1)N2C.Cl, the ED50 (Mus musculus [10]) is reported as 5.8 mg/kg, the Activity (Rattus norvegicus [17]) is reported as “Toxic” and the Activity (Rattus norvegicus [18]) is reported as under 20%. For the same compound, the Activity (Mus musculus [19]) was “Toxic” and the Activity (Rattus norvegicus [20]) was 21%.
